A word on the IC50: it is the concentration needed to halve the response being measured. Lower therefore signals greater potency in that assay. As a reminder, the Cmax is the peak of the concentration-time curve.

The structures appear in SMILES notation. Counter-ions that a name gives are not always drawn. Like-named read-outs stand apart in the source and are kept apart here.

Here are results for twelve compounds from PMC3894639 (Pharmacogenetics and genomics, 2013).

In data set [1] the target is T1, OATP1B1 (Homo sapiens, UniProt Q9Y6L6).
T1 sequence (Q9Y6L6 1-691): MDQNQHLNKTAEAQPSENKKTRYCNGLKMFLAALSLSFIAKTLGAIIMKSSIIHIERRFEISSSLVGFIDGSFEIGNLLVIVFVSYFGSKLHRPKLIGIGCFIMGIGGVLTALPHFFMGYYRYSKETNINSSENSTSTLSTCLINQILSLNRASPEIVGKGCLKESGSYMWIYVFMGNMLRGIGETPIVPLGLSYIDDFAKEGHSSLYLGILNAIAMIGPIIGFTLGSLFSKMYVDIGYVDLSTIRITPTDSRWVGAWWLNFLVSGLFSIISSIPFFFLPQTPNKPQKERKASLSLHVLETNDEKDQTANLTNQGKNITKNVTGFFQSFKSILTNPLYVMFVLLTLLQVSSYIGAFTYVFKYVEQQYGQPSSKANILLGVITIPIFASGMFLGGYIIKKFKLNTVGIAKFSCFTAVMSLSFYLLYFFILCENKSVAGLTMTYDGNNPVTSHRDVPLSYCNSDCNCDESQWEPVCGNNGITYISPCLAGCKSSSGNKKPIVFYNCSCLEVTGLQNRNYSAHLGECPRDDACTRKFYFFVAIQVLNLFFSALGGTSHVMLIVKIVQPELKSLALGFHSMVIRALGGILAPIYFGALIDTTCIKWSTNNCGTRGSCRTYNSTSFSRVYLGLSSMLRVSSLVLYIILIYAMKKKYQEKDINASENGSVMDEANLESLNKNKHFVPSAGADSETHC
Description: Prediction of clinical drug-drug interactions. The note with it: R=1+fu×Iin,max/IC50, ES as substrate; oral dose listed per drug in Table 3.

For data set [2], the target named is T1, OATP1B1.
For data set [3] the following is noted: cited from earlier work.
Data set [4] addresses T1, OATP1B1. This is another data set of the same source.
For data set [5] the following is noted: protein unbound fraction; ref literature; cited from earlier work.
[6] abbreviates: 5 nmol/l [3H]-CER, concentrations up to 100 µmol/l.
[7] abbreviates: 20 nmol/l [3H]-ES, concentrations up to 100 µmol/l.
The mark [8] stands for this setting: at the oral dose listed per drug in Table 3 (clopidogrel 75 mg).
[9] abbreviates: concentrations up to 3 µmol/l, limited by solubility.

As for `CC(C)(O)c1ccccc1CC[C@@H](SCC1(CC(=O)O)CC1)c1cccc(/C=C/c2ccc3ccc(Cl)cc3n2)c1` [Montelukast, montelukast sodium], the “R (ES)” value at OATP1B1 [1] is recorded as 1.01. Further, the IC50 stood at 2.04 µM against OATP1B1 [2] and 1.4 µM against OATP1B1 [4]. The “Inhibition of OATP1B1-mediated uptake of cerivastatin (in words)” value (from here on “Inhibition … of cerivastatin (in words)”) at OATP1B1 [2] (setting [6]) is reported as “inhibited”. In addition, the Cmax in data set [3] (in vivo, po, 75 mg) was 542 ng/mL. In addition, the “Inhibition of OATP1B1-mediated uptake of ES (in words)” value (“Inhibition … of ES (in words)” below) at OATP1B1 [4] (setting [7]) was “inhibited”.
For `CCCCC1=NC2(CCCC2)C(=O)N1Cc1ccc(-c2ccccc2-c2nnn[nH]2)cc1` [irbesartan, Irbesartan], on OATP1B1 [2] (setting [6]), the “Inhibition … of cerivastatin (in words)” value is recorded as “did not inhibit”. Besides, the “Inhibition … of ES (in words)” value on OATP1B1 [4] (setting [7]) is on record as “did not inhibit”.
For `CO[C@H]1/C=C/O[C@@]2(C)Oc3c(C)c(O)c4c(O)c(c(/C=N/N5CCN(C)CC5)c(O)c4c3C2=O)NC(=O)/C(C)=C\C=C\[C@H](C)[C@H](O)[C@@H](C)[C@@H](O)[C@@H](C)[C@H](OC(C)=O)[C@@H]1C` [Rifampin, rifampin], the “R (ES)” value on OATP1B1 [1] is given as 8.56. In addition, the figures for the IC50 at OATP1B1 [2] and against OATP1B1 [4] were 5.65 µM and 0.88 µM, respectively. Also, the Cmax in data set [3] (setting [8]) was 10000 ng/mL.
Turning to `CCOC(=O)C1=C(COCCN)NC(C)=C(C(=O)OC)C1c1ccccc1Cl` (centres unmarked) [Amlodipine, amlodipine], the IC50 stood at 35.5 µM on OATP1B1 [2] and 39.6 µM on OATP1B1 [4].
Regarding `CCc1ccc(CCOc2ccc(CC3SC(=O)NC3=O)cc2)nc1` (centres unmarked) [Pioglitazone, pioglitazone hydrochloride], the “R (ES)” value on OATP1B1 [1] is recorded as 1.01. Further, the half-maximal inhibitory concentration (IC50) against OATP1B1 [2] was 39.6 µM; at OATP1B1 [4], 6.8 µM. The “Inhibition … of cerivastatin (in words)” value on OATP1B1 [2] (setting [6]) is recorded as “inhibited”. The Cmax in data set [3] (in vivo, po, 75 mg) is 1500 ng/mL. At OATP1B1 [4] (setting [7]), the “Inhibition … of ES (in words)” value was “inhibited”.
`Cc1ccc(-c2cc(C(F)(F)F)nn2-c2ccc(S(N)(=O)=O)cc2)cc1` [Celecoxib, celecoxib]: the “Inhibition … of cerivastatin (in words)” value on OATP1B1 [2] (setting [6]) is “did not inhibit”. Also, the “Inhibition … of ES (in words)” value on OATP1B1 [4] (setting [7]) is given as “did not inhibit”.
For the compound `C[C@]1(O)CC[C@H]2[C@@H]3CCC4=CC(=O)CC[C@]4(C)[C@@]3(F)[C@@H](O)C[C@@]21C` [Fluoxymesterone], at OATP1B1 [2] (setting [9]), the “Inhibition … of cerivastatin (in words)” value is recorded as “no inhibitory effects”. In addition, the “Inhibition … of ES (in words)” value at OATP1B1 [4] (setting [9]) is listed as “no inhibitory effects”.
For `O=C(O)[C@H]1O[C@@H](OC(=O)[C@H](c2ccccc2Cl)N2CCc3sccc3C2)[C@H](O)[C@@H](O)[C@@H]1O` [Clopidogrel acyl glucuronide, clopidogrel acyl glucuronide], the “Inhibition … of cerivastatin (in words)” value on OATP1B1 [2] (setting [6]) is on record as “inhibited”. For the same compound, the “Inhibition … of ES (in words)” value on OATP1B1 [4] (setting [7]) is given as “inhibited”.
In the case of `CS(=O)(=O)c1ccc(C2=C(c3ccccc3)C(=O)OC2)cc1` [Rofecoxib, rofecoxib], the “R (ES)” value at OATP1B1 [1] was 1.15. The figures for the IC50 against OATP1B1 [2] and against OATP1B1 [4] were 1.17 µM and 5.65 µM, respectively. Also, on OATP1B1 [2] (setting [6]), the “Inhibition … of cerivastatin (in words)” value is listed as “inhibited”. For the same compound, in data set [3] (setting [8]), the Cmax is 320 ng/mL. In addition, on OATP1B1 [4] (setting [7]), the “Inhibition … of ES (in words)” value was “inhibited”.
With `Cc1c(OCC(F)(F)F)ccnc1C[S+]([O-])c1nc2ccccc2[nH]1` (centres unmarked) [lansoprazole], the “Inhibition … of cerivastatin (in words)” value on OATP1B1 [2] (setting [6]) was “did not inhibit”. The “Inhibition … of ES (in words)” value on OATP1B1 [4] (setting [7]) is reported as “did not inhibit”.
Consider `CN(CCOc1ccc(CC2SC(=O)NC2=O)cc1)c1ccccn1` (centres unmarked) [Rosiglitazone, Rosiglitazone-potassium salt], for which the IC50 on OATP1B1 [2] turned out to be 43.4 µM; at OATP1B1 [4], 4.27 µM. Also, the Cmax in data set [3] (setting [8]) was 598 ng/mL.
As to `COc1ccc(Cl)cc1C(=O)NCCc1ccc(S(=O)(=O)NC(=O)NC2CCCCC2)cc1` [Glyburide, glyburide], the fu in data set [5] is listed as 0.002.
